Source: ChEMBL document CHEMBL1177693, “Antimalarials from nature” (Bioorg Med Chem, 2009)
Values after ≈ are worked out from the molar mass of the structure shown.

These compounds were tested on Plasmodium falciparum (assay: Antimalarial activity against chloroquine-resistant Plasmodium falciparum Dd2). Settings: not given.
Type: functional, organism-based

Row | Structure (SMILES) | IC50 [µg/mL]
1 | C=C1C(=O)O[C@H]2[C@H]1[C@@H](OC(C)=O)CC(=C)[C@]1(O)CC=C(C)[C@H]21 | 10.8 (≈ 35.5 µM)
2 | COc1ccc(-c2cc(=O)oc3c(OC)c(OC)cc(OC)c23)cc1 | 3.6 (≈ 10.5 µM)

What follows are compounds tested on Plasmodium falciparum (assay: Antimalarial activity against Plasmodium falciparum). Settings: not given.
Type: functional, organism-based

Row | Structure (SMILES) | fold change (FC)
3 | C=C(COCc1ccc(Br)cc1)[C@@H]1CC[C@]2(C)CC[C@]3(C)[C@H](CC[C@@H]4[C@@]5(C)CC[C@H](OC(=O)CCCCCCC(N)=O)C(C)(C)[C@@H]5CC[C@]43C)[C@@H]12 | 7

Same assay, conditions: Plasmodium falciparum

Row | IC50 | EC50 [µg/mL] | MIC [µM] | Structure (SMILES)
4 | 0.67 µg/mL | – | – | C=C1C(=O)[C@@]23CC[C@H]4[C@@]5(C)CCC[C@@]4(OC5=O)[C@@]2(C)CC[C@]1(O)C3
5 | 5.13 µM | – | – | CC(C)=CCc1cc(/C=C/C(=O)c2cc(CC=C(C)C)c(O)cc2O)ccc1O [STIPULIN]
6 | – | 0.9 (≈ 2.64 µM) | – | COc1ccc2c(c1O)CCc1cc(O)c(C)c3c1C2CC(C)(C)O3 (stereo not drawn) [RACEMOSOL]
7 | – | – | 13.1 (≈ 5.58 µg/mL) | C=C(C)[C@@H]1CC[C@]2(C)CC[C@]3(C)[C@H](CC[C@@H]4[C@@]5(C)CC[C@H](O)C(C)(C)[C@@H]5CC[C@]43C)[C@@H]12 [LUPEOL]
8 | 8.5 µg/mL | – | – | C=CC(C)(C)c1c2c(c(OC)c3ccc(=O)oc13)C=CC(C)(C)O2 [DENTATIN]
9 | 0.061 µg/mL | – | – | C/C=C(\C)C(=O)O[C@@H]1[C@H]2C(C)=CC(=O)[C@@H](O)[C@]2(C)[C@H]2[C@]3(O)OC[C@@]24[C@@H]1OC(=O)C[C@H]4[C@@H](C)[C@H]3O
10 | 38.3 µM | – | – | CC(O)c1cncc2c(=O)n3c(cc12)-c1[nH]c2ccc(O)cc2c1CC3 (configuration not stated) [NAUCLEOFFICINE E]
11 | 6.7 µM | – | – | O=C1c2ccc(O)cc2O[C@H](c2ccc(O)cc2)[C@H]1[C@@H]1C(=O)c2ccc(O)cc2O[C@H]1c1ccc(O)cc1
12 | 1.8 µg/mL | – | – | C=C(C)C(=O)O[C@H]1C[C@H](C)C2=CC(=O)[C@](C)(/C=C3/OC(=O)C(COC(C)=O)=C31)O2
13 | 1.57 µg/mL | – | – | C=C1C(=O)[C@@]23CC[C@H]4[C@@]5(C)CCC[C@@]4(OC5=O)[C@@]2(C)CC[C@@H]1C3
14 | 42.9 µM | – | – | COc1ccc2c(OC)c3c(C)cc(=O)[nH]c3c(OC)c2c1OC
15 | 15 µg/mL | – | – | C/C1=C\[C@H]2O[C@](C)(CC[C@@H]2[C@@]2(C)CO2)[C@@H](O)CC/C(C)=C/CC1
16 | 5.9 µg/mL | – | – | C=C1C2CC[C@@]3(C)[C@H](c4ccoc4)OC(=O)C[C@]13O[C@H]1CC(=O)C(C)(C)[C@H](CC(=O)OC)[C@@]21C
17 | 3.36 µM | – | – | CC1(C)C=Cc2c(ccc(C(=O)/C=C/c3ccc(O)cc3)c2O)O1
18 | 16.5 µM | – | – | C=C1C(=O)O[C@@H]2/C=C(/C)C3=CC(=O)[C@](C)(O3)[C@H](O)[C@@H](OC(=O)CC(C)C)[C@@H]12 [LOBATIN B]
19 | 0.62 µM | – | – | C=C1C(=O)O[C@@H]2C[C@@H](C)/C=C\C(=O)[C@@](C)(O)[C@H](OC(C)=O)[C@@H](OC(=O)CC(C)C)[C@@H]12 [NEUROLENIN B]
20 | 2.4 µM | – | – | Cc1cc(O)c2c(c1)[C@H]([C@H]1O[C@H](OC(=O)c3ccccc3)[C@@H](O)[C@@H](O)[C@@H]1O)c1cccc(O)c1C2=O [UVEOSIDE]
21 | 0.54 µg/mL | – | – | C=C1C(=O)[C@@]23CC[C@H]4[C@@]5(C)CCC[C@@]4(OC5=O)[C@@]2(C)CC[C@]1(OC)C3
22 | – | 0.5 (≈ 1.78 µM) | – | C[C@H]1[C@H](O)CCC2=CC(=O)[C@@]3([C@@]4(CO)CO4)O[C@@H]3[C@@]21C
23 | 28.3 µM | – | – | CC1(C)CC[C@]2(C(=O)O)CC[C@]3(C)C(=CC[C@@H]4[C@@]5(C)CC[C@@H](O)C(C)(C)[C@@H]5CC[C@]43C)[C@@H]2C1
24 | 0.2 µg/mL | – | – | C[C@@]12C=CC(=O)[C@@]3(C)[C@H]1[C@@H](OC2)[C@@H](OC(=O)c1ccccc1)[C@@]1(C)C2=CC[C@@H](C4=CC(O)OC4=O)[C@]2(C)C[C@@H]2O[C@]231 (mixture of isomers) [TRICHIRUBINE B]
25 | 0.0112 µg/mL | – | – | COc1cc2c(cc1O)CCN(C)[C@H]2Cc1ccc(Oc2c(O)c(OC)cc3c2C[C@@H]2c4c(cc(OC)c(OC)c4-3)CCN2C)cc1
26 | > 20 µg/mL | – | – | C=C1C([C@@]2(C)C=CC(=O)C(C)(C)[C@@H]2[C@H](O)C(=O)OC)CC[C@@]2(C)[C@H](c3ccoc3)OC(=O)C[C@]12O (some centres not stated) [DOMESTICULIDE A]
27 | > 20 µg/mL | – | – | C=C1C2CC[C@@]3(C)[C@H](c4ccoc4)OC(=O)C[C@]13O[C@H]1CC(=O)C(C)(C)[C@H](C(O)C(=O)OC)[C@@]21C (some centres not stated) [6-HYDROXYANGOLENSIC ACID METHYL ESTER]
28 | 1.1 µg/mL | – | – | C=C[C@@]12COC(=O)C(=C)[C@@H]1[C@H]1OC(=O)[C@@H](C)[C@@H]1[C@@H](OC(=O)C(=C)CO)C2
29 | 1.1 µg/mL | – | – | COc1c2c(cc(O)c1-c1cc(-c3ccc4c(-c5c(O)cc(O)c6c5C[C@@H](C)N[C@@H]6C)c(C)cc(OC)c4c3O)c(O)c3c(OC)cc(C)cc13)C[C@@H](C)N=C2C [KORUNDAMINE A]
30 | 0.0102 µg/mL | – | – | COc1cc2c(cc1OC)[C@H](Cc1ccc(Oc3c(O)c(OC)cc4c3C[C@@H]3c5c(c(O)c(OC)c(OC)c5-4)CCN3C)cc1)N(C)CC2
31 | 4.76 µg/mL | – | – | COc1cc2c(cc1OC)[C@@H]1C[C@H](C[C@H]3CCCCN31)OC(=O)/C=C\c1ccc(O)c-2c1 [VERTINE]
32 | 1.5 µg/mL | – | – | COC1=C(OC)C(=O)C([C@H]2COc3c(cc(OC)c(OC)c3OC)C2)=CC1=O [ABRUQUINONE B]
33 | 1.79 µg/mL | – | – | CC(=O)Oc1cc(C)c(OC(C)=O)c2c1[nH]c1ccccc12

Row | Structure (SMILES) | IC50 | EC50 [µg/mL] | MIC [µM]
34 | O=C1O[C@@H]2[C@@H](OC(=O)c3cc(O)c(O)c(O)c3-c3c1cc(O)c(O)c3O)[C@H](O)O[C@@H]1COC(=O)c3cc(O)c(O)c(O)c3-c3c(O)c(O)c4oc(=O)c5c(c(O)c(O)c6oc(=O)c3c4c65)-c3c(cc(O)c(O)c3O)C(=O)O[C@@H]21 (racemic) [PUNICALAGIN] | 27.7 µg/mL | – | –
35 | CC1=CC(=O)[C@@H](O)[C@]2(C)[C@H]3[C@]4(O)OC[C@@]35[C@@H](C[C@@H]12)OC(=O)[C@H](O)[C@@]5(O)[C@@]1(CO1)[C@H]4O [PASAKBUMIN B] | 0.0226 µg/mL | – | –
36 | C/C=C(/CO[C@H]1O[C@@H](CO)[C@H](O)[C@@H](O)[C@@H]1O)c1cc2n(c(=O)c1CO)CCc1c-2[nH]c2ccccc12 [NAUCLEOFFICINE A] | 9.7 µM | – | –
37 | CC1=CC(=O)[C@@H](O)[C@]2(C)[C@H]3[C@]4(O)OC[C@@]35[C@@H](C[C@@H]12)OC(=O)[C@H](O)[C@@]5(O)[C@H](C)[C@H]4O [PASAKBUMIN C] | 0.0933 µg/mL | – | –
38 | COc1cc2c3cc1Oc1c(OC)c(OC)cc4c1[C@H](Cc1ccc(OC)c(c1)-c1cc(ccc1O)C[C@H]3N(C)CC2)N(C)CC4 | 1.14 µM | – | –
39 | C=CC(C)(C)c1cc2c(O)c3c(c(C(C)(C)C=C)c2oc1=O)OC(C)(C)C=C3 [CLAUSARIN] | 0.1 µg/mL | – | –
40 | CC1=CC(=O)c2c(O)cccc2C1=O [PLUMBAGIN] | 0.27 µM | – | –
41 | C[C@@H]1CC[C@H]2C(C)(C)[C@H](O)CC[C@]2(C)[C@@]12Cc1c(O)cc3c(c1O2)COC3=O | 0.15 µg/mL | – | –
42 | C=C1[C@@H](O)[C@@]2(O)OC[C@]34[C@H]2[C@@]2(C)[C@H](O)C(=O)C=C(C)[C@@H]2C[C@H]3OC(=O)[C@H](O)[C@@]14O [EURYCOMANONE] | 0.04 µg/mL | – | –
43 | C[C@@H]1CC[C@H]2C(C)(C)[C@H](O)CC[C@]2(C)[C@@]12Cc1c(O)cc(C=O)c(C=O)c1O2 | 0.85 µg/mL | – | –
44 | NC[C@H](Cl)[C@@H](O)c1c[nH]c(N)n1 [GIRACODAZOLE] | 0.077 µM | – | –
45 | C=C1C(=O)O[C@@H]2C[C@@H](C)[C@@H]3C=CC(=O)[C@@]3(C)[C@@H](O)[C@H]12 [HELENALIN] | 0.23 µM | – | –
46 | O[C@H]1[C@H]2c3cc4c(cc3CN3CCC(=C[C@@H]1O)[C@H]23)OCO4 [LYCORINE] | 0.62 µg/mL | – | –
47 | O=C1OC(O)C(Br)=C1Br (configuration not stated) [MUCOBROMIC ACID] | 0.359 µg/mL | – | –
48 | C/C(=C\[C@@H](O)[C@H](O)[C@@H](C)C1=CC[C@@]2(C)C[C@@H]3[C@H](C)CC[C@@H]3/C(C(=O)O)=C\C[C@H]12)C(=O)O [HALOROSELLINIC ACID] | 13 µg/mL | – | –
49 | CO[C@H]1[C@@H](O)[C@H](O[C@H]2[C@@H](OC)C[C@H](O[C@H]3[C@@H](OC)C[C@@H](O[C@H]4CC[C@@]5(C)C(=CC[C@@H]6[C@@H]5C[C@@H](OC(=O)c5ccccc5)[C@]5(C)[C@@H]([C@H](C)OC(C)=O)CC[C@]65O)C4)O[C@@H]3C)O[C@@H]2C)O[C@H](C)[C@H]1O | 6.25 µg/mL | – | –

The compounds below were run on Plasmodium falciparum (assay: Antimalarial activity against Plasmodium falciparum K1). Settings: not given.
Type: functional, organism-based

Row | Structure (SMILES) | EC50 [µg/mL] | IC50
50 | CC[C@H](C)[C@H]1OC(=O)[C@H](Cc2ccccc2)N(C)C(=O)[C@@H](C(C)C)OC(=O)[C@H](Cc2ccccc2)N(C)C(=O)[C@@H](C(C)C)OC(=O)[C@H](Cc2ccccc2)N(C)C1=O [BEAUVERICIN A] | 12 (≈ 15 µM) | –
51 | COC(=O)C[C@H]1[C@]2(C)C3=C(C)[C@H](c4ccoc4)C[C@H]3O[C@@H]2[C@@H]2OC(=O)[C@]3(C)C=CC(=O)[C@@]1(C)[C@@H]23 [NIMBOLIDE] | 0.00095 (≈ 0.00204 µM) | –
52 | C[C@H]1C/C=C/[C@@H](O)[C@@H](O)CC/C=C/c2cc(O)cc(O)c2C(=O)O1 [AIGIALOMYCIN D] | – | 6.6 µg/mL
53 | CC(C)[C@@H]1OC(=O)[C@@H](Cc2ccccc2)N(C)C(=O)[C@H](C(C)C)OC(=O)[C@@H](Cc2ccccc2)N(C)C(=O)[C@H](C(C)C)OC(=O)[C@@H](Cc2ccccc2)N(C)C1=O [BEAUVERICIN] | 1.6 (≈ 2.04 µM) | –
54 | CO[C@@H]1C=C[C@@]23c4cc5c(cc4CO[C@]2(O)CN(C)[C@H]3C1)OCO5 [TAZETTINE] | – | 5.42 µg/mL
55 | CCN(CC)CCOc1cc2oc3cc(O)c(CC=C(C)C)c(O)c3c(=O)c2c(CC=C(C)C)c1OC | – | < 1 µM
56 | COc1ccc2c3c1O[C@H]1C[C@@H](O)C=C[C@@]31CCN(C)C2 [GALANTAMINE] | – | 4.38 µg/mL
57 | CCN(CC)CC(O)COc1cc2oc3cc(O)c(CC=C(C)C)c(O)c3c(=O)c2c(CC=C(C)C)c1OC (configuration not stated) | – | < 1 µM
58 | COc1c(OCCCN(C)C)cc2oc3cc(O)c(CC=C(C)C)c(O)c3c(=O)c2c1CC=C(C)C | – | < 1 µM

The compounds below were run on Plasmodium falciparum (assay: Antimalarial activity against Plasmodium falciparum W2). Settings: not given.
Type: functional, organism-based

Row | IC50 [µM] | Structure (SMILES)
59 | 32.6 | COc1cc2c(cc1OC)[C@@H]1Cc3ccc(OC)c(OC)c3CN1CC2 [TETRAHYDROPALMATINE]
60 | 52.3 | COc1cc2c(cc1OC)CN1CCc3cc(OC)c(OC)cc3[C@@H]1C2 [XYLOPININE]
61 | 0.61 | COc1ccc2cc1Oc1ccc(cc1)C[C@H]1c3c(cc4c(c3Oc3cc5c(cc3OC)CCN(C)[C@@H]5C2)OCO4)CCN1C [CEPHARANTHINE]

Row | Structure (SMILES) | IC50 [µM]
62 | CN1CCc2cc3c(c4c2c1cc1ccccc14)OCO3 [DEHYDROROEMERINE] | 0.36
